From patent US8058243B2, “Method for treating a brain cancer with ifenprodil” (HSC Research and Development Limited Partnership, priority 2006, dated 2011)
Structures can show the parent of a compound that is named as a salt. Where two headings read alike, the source gives them in different places.

Test system: murine neural precursor cells (neurosphere cultures)
Assay: HTS of LOPAC library against secondary neurosphere cultures, MTT proliferation assay at 3 μM, day 7 (z score, P value)
Format: cell-based, mouse
[1] = LOPAC primary screen, neurosphere MTT proliferation, 3 μM, day 7
[2] = yes = significantly inhibited neurosphere proliferation (P<0.01) in the primary screen
[3] = LOPAC library screen, 3 μM, MTT, secondary neurosphere cultures, day 7
[4] = yes/no: significantly inhibited neurosphere proliferation (P<0.01) in primary screen
[5] = LOPAC library screen at 3 μM, secondary neurosphere cultures, MTT
[6] = yes/no: significantly inhibited neurosphere proliferation (P<0.01) in the primary screen
[7] = LOPAC library screen, 3 μM, MTT, neurosphere cultures
[8] = primary LOPAC screen, 3 μM, MTT, neurosphere proliferation
[9] = yes/no: significantly inhibited neurosphere proliferation in the primary screen

Row | SMILES | Z Score | Z score [1] | Activity [4] | also measured
1 | O=C(Nc1ccccc1)c1cc([N+](=O)[O-])ccc1Cl [GW9662] | 1.475 | 1.475 |  | Activity [2]: no
2 | CC1=NN=C(c2ccc(N)cc2)c2cc3c(cc2C1)OCO3 [GYKI 52466 hydrochloride] |  | −1.864 |  | Z Score [3]: −1.864; Activity [2]: no
3 | CC1Cc2cc3c(cc2C(c2ccc(N)cc2)=NN1)OCO3 (centres unmarked) [GYKI 52895] | −1.258 | −1.258 |  | Activity: no
4 | NCC1(CC(=O)O)CCCCC1 [Gabapentin] | 0.8838 | 0.884 | no | 
5 | CC[N+](CC)(CC)CCOc1cccc(OCC[N+](CC)(CC)CC)c1OCC[N+](CC)(CC)CC [Gallamine triethiodide] |  | −0.916 | no | Z Score [5]: −0.9156
6 | Nc1nc(O)c2ncn(COC(CO)CO)c2n1 [Ganciclovir] |  | −8.939 |  | Z Score [3]: −8.939; Activity [6]: yes
7 | O=c1c(-c2ccc(O)cc2)coc2cc(O)cc(O)c12 [Genistein] |  | −0.469 |  | Z Score [5]: −0.4689; Activity [6]: no
8 | COc1ccc(Cl)cc1C(=O)NCCc1ccc(S(=O)(=O)NC(=O)NC2CCCCC2)cc1 [Glibenclamide] |  | −0.360 | no | Z Score [5]: −0.36
9 | Cc1cnc(C(=O)NCCc2ccc(S(=O)(=O)NC(=O)NC3CCCCC3)cc2)cn1 [Glipizide] |  | −0.830 |  | Activity: no; Z Score [5]: −0.8295
10 | N=C(N)N/N=C/c1c(Cl)cccc1Cl [Guanabenz acetate] |  | −1.906 | no | Z Score [3]: −1.906
11 | N=C(N)NC(=O)Cc1c(Cl)cccc1Cl [Guanfacine hydrochloride] |  |  |  | Z Score [7]: 0.9271
12 | Br.Br.N=C(N)NCCSSCCNC(=N)N [Guanidinoethyl disulfide dihydrobromide] |  |  |  | Z Score (168 h, 3 µM): −4.521; Z score (168 h, 3 µM): −4.521; Activity [2]: yes
13 | Cl.N=C(N)NC(=O)Cc1c(Cl)cccc1Cl [Guranfacine hydrochloride] |  | 0.927 | no | 
14 | Cl.O=C(O)C1=CCCNC1 [Guvacine hydrochloride] | −1.345 | −1.345 | no | 
15 | CC1CNCCN1S(=O)(=O)c1cccc2cnccc12.Cl.Cl (centres unmarked) [H-7 dihydrochloride] | 0.6813 | 0.681 |  | 
16 | CNCCNS(=O)(=O)c1cccc2cnccc12.Cl.Cl [H-8 dihydrochloride] | −1.583 | −1.583 |  | Activity [2]: no
17 | Cl.Cl.NCCNS(=O)(=O)c1cccc2cnccc12 [H-9 dihydrochloride] | −0.1899 |  |  | Z score [8]: −0.190; Activity [9]: no
18 | O=S(=O)(c1cccc2cnccc12)N1CCNCC1 [HA-100] | −0.6892 | −0.689 |  | Activity [6]: no
19 | Cl.NC(N)=NCCNS(=O)(=O)c1cccc2cnccc12 [HA-1004 hydrochloride] | 0.3161 | 0.316 | no | 

Row | SMILES | Z Score | Z score [1] | Activity [4] | also measured
20 | CCCCC#Cc1nc(N)c2ncn([C@@H]3O[C@H](C(=O)NCC)[C@@H](O)[C@H]3O)c2n1 [HE-NECA] | −2.504 | −2.504 |  | Activity [6]: yes
21 | O=C(CCCN1CCC(O)(c2ccc(Cl)cc2)CC1)c1ccc(F)cc1 [Haloperidol] |  | −0.740 | no | Z Score [5]: −0.7399
22 | Cc1nccc2c1[nH]c1ccccc12 [Harmane] | −1.403 | −1.403 |  | 
23 | C[N+]1(C)CCOC(O)(c2ccc(-c3ccc(C4(O)C[N+](C)(C)CCO4)cc3)cc2)C1.[Br-].[Br-] (centres unmarked) [Hemicholinium-3] | 0.7871 | 0.787 | no | 
24 | C[N+](C)(C)CCCCCC[N+](C)(C)C [Hexamethonium bromide] | −0.8199 | −0.820 |  | Activity [6]: no
25 | C[N+](C)(C)CCCCCC[N+](C)(C)C.[Cl-].[Cl-] [Hexamethonium dichloride] | −10.63 | −10.634 |  | Activity [6]: yes
26 | O=c1cc(O)cc(/C=C/c2ccc(O)c(O)c2)o1 [Hispidin] |  |  | no | Z Score (168 h, 3 µM): 0.8896; Z score (168 h, 3 µM): 0.890
27 | Cl.Cl.NCCc1c[nH]cn1 [Histamine dihydrochloride] | −1.476 |  |  | Activity: no; Z score: −1.476
28 | NNc1nncc2ccccc12 [Hydralazine hydrochloride] |  | 0.259 | no | Z Score [7]: 0.2592
29 | NS(=O)(=O)c1cc2c(cc1Cl)NCNS2(=O)=O [Hydrochlorothiazide] |  | −0.212 | no | Z Score [5]: −0.212
30 | C[C@]12CCC(=O)C=C1CC[C@@H]1[C@@H]2[C@@H](O)C[C@@]2(C)[C@H]1CC[C@]2(O)C(=O)COC(=O)CCC(=O)[O-].[Na+] [Hydrocortisone 21-hemisuccinate sodium] |  | −0.040 | no | Z Score [7]: −0.04033
31 | C[C@]12CCC(=O)C=C1CC[C@@H]1[C@@H]2[C@@H](O)C[C@@]2(C)[C@H]1CC[C@]2(O)C(=O)CO [Hydrocortisone] |  | −3.049 |  | Z Score [3]: −3.049; Activity [2]: yes
32 | Oc1ccc(O)cc1 [Hydroquinone] |  | 0.428 | no | Z Score [7]: 0.428
33 | Cl.NO [Hydroxylamine hydrochloride] | 1.635 |  |  | Activity: no; Z score: 1.635
34 | NC(=O)NO [Hydroxyurea] |  | 1.131 | no | Z Score [7]: 1.131
35 | NCCS(=O)O [Hypotaurine] | 0.2752 |  |  | Activity: no; Z score: 0.275
36 | COc1cc(/C=C(\C#N)C(=O)c2ccc(O)c(O)c2)cc(I)c1O [I-OMe-Tyrphostin AG 538] |  |  |  | Z Score [5]: −0.7369; Z score [8]: −0.737; Activity [9]: no
37 | CNC(=O)[C@H]1O[C@@H](n2cnc3c(NCc4cccc(I)c4)ncnc32)[C@H](O)[C@@H]1O [IB-MECA] |  | −1.089 | no | Z Score [5]: −1.089
38 | COc1cc(OC)c(C=C2C(O)=Nc3ccccc32)c(OC)c1 [IC 261] | −1.63 | −1.630 |  | Activity (yes/no: significantly inhibited neurosphere proliferation in primary screen): no

Row | SMILES | Z Score | Z score [1] | Activity [4] | also measured
39 | Cc1ccc(OCC(O)C(C)NC(C)C)c2c1CCC2.Cl (centres unmarked) [ICI 118,551 hydrochloride] | 1.101 | 1.101 | no | 
40 | CN(C(=O)Cc1ccc(Cl)c(Cl)c1)C(CN1CCCC1)c1cccc(OCC(=O)O)c1.Cl (centres unmarked) [ICI 204,448 hydrochloride] | −0.3636 | −0.364 | no | 
41 | Br.C[N+](C)(C)CCCCCNCC12CC3CC(CC(C3)C1)C2.[Br-] [IEM-1460] | 0.6848 | 0.685 | no | 
42 | CCCC(=O)NCCc1c2n(c3ccc(OC)cc13)Cc1ccccc1-2 [IIK7] | −0.3544 | −0.354 | no | 
43 | Cl.Fc1ccc(CN(C2=NCCN2)c2c(Cl)cccc2Cl)cc1 [IMID-4F hydrochloride] | −1.906 | −1.906 | no | 
44 | CC(C)C(=O)c1c(C(C)C)nn2ccccc12 [Ibudilast] |  | 0.379 |  | Z Score [7]: 0.3787
45 | O=C1NC(c2cccc([N+](=O)[O-])c2)=CCN1c1ccccc1O [Icilin] |  |  | no | Z Score (LOPAC library screen at 3 μM, MTT, secondary neurosphere cultures, screened in singlets): 1.643; Z score (LOPAC screen, neurosphere MTT proliferation, 3 μM, day 7): 1.643
46 | CC(=O)[C@]1(O)Cc2c(O)c3c(c(O)c2[C@@H](O[C@H]2C[C@H](N)[C@H](O)[C@H](C)O2)C1)C(=O)c1ccccc1C3=O [Idarubicin] |  | −11.274 |  | Z Score [3]: −11.27; Activity [2]: yes
47 | c1ccc2c(c1)OCC(C1=NCCN1)O2 (centres unmarked) [Idazoxan hydrochloride] |  | −1.448 | no | Z Score [3]: −1.448
48 | O=C1CCC(c2ccc(-n3ccnc3)cc2)=NN1 [Imazodan] |  |  | no | Z Score (168 h, 3 µM): 0.4616; Z score (168 h, 3 µM): 0.462
49 | N=C(N)SCCc1cnc[nH]1 [Imetit dihydrobromide] | −0.2452 |  |  | Z score: −0.245
50 | Cl.O=C(O)Cc1c[nH]cn1 [Imidazole-4-acetic acid hydrochloride] | −0.9223 | −0.922 | no | 
51 | CCn1ccnc1CC1COc2ccccc2O1 (centres unmarked) [Imiloxan hydrochloride] |  | −0.988 | no | Z Score [5]: −0.9879
52 | CN(C)CCCN1c2ccccc2CCc2ccccc21 [Imipramine hydrochloride] |  | −0.527 |  | Activity: no; Z Score [5]: −0.5272
53 | CN[C@@H]1C[C@@H](c2ccc(Cl)c(Cl)c2)c2ccccc21 [Indatraline hydrochloride] | −0.7236 | −0.724 | no | 
54 | O=C1Nc2ccccc2/C1=C1/Nc2ccccc2/C1=N\O [Indirubin-3′-oxime] |  | −0.397 | no | Z Score [5]: −0.3965
55 | COc1ccc2c(c1)c(CC(=O)N1CCOCC1)c(C)n2C(=O)c1ccc(Cl)cc1 [Indomethacin morpholinylamide] |  |  |  | Z Score (168 h, 3 µM): −3.398; Z score (168 h, 3 µM): −3.398; Activity [6]: yes
56 | COc1ccc2c(c1)c(CC(=O)O)c(C)n2C(=O)c1ccc(Cl)cc1 [Indomethacin] |  | −0.356 |  | Z Score [5]: −0.3563; Activity [6]: no
